# Source: patent publication US20190367516A1 (Bayer Pharma Aktiengesellschaft, priority 2015, published 2019)
# Like-named read-outs stand apart in the source and are kept apart here.
# Biological target: T1, human M2 receptor (Homo sapiens, UniProt P08172)
# T1 sequence (P08172 1-466): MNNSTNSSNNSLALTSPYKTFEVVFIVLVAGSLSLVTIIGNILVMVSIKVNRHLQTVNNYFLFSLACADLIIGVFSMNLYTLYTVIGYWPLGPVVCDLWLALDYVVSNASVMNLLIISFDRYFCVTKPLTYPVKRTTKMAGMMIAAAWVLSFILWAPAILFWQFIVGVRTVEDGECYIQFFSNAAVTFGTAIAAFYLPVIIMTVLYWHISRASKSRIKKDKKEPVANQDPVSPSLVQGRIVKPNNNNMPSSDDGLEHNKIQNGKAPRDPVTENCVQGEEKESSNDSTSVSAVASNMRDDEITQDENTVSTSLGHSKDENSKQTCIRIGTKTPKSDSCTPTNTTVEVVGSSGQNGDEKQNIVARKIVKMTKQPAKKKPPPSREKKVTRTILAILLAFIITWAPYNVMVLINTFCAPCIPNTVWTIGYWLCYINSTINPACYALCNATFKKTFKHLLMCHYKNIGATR
# Conditions: for Emax: read-out: Efficiency, boosting of the acetylcholine effect at EC20 acetylcholine concentration; for Efficiency: boosting of the acetylcholine effect at EC20 acetylcholine concentration
# [1] = Receptor activity EC50, allosteric potency at EC20 acetylcholine, M2-GIRK1/4 reporter cells, in some cases mean of two or more determinations
# [2] = Receptor activity EC50, M2-GIRK1/4 activation test, acetylcholine at EC20, allosteric potency, in some cases mean values from two or more determinations
Compound,EC50 [1],EC50 [2],other results
"Cc1ccc(C(NC(=O)c2cn(-c3ccc(F)cc3F)c3nc(N(C)C)ccc3c2=O)C(F)(F)F)cc1 (racemic) [Example 141, rac-1-(2,4-Difluorophenyl)-7-(dimethylamino)-4-oxo-N-[2,2,2-trifluoro-1-(4-methylphenyl)ethyl]-1,4-dihydro-1,8-naphthyridine-3-carboxamide]",–,0.083 µM,–
"O=C(NC12CC3CC(CC(F)(C3)C1)C2)c1cn(-c2ccc(F)cc2F)c2nc(NCC(F)(F)F)ccc2c1=O [Example 91, 1-(2,4-Difluorophenyl)-N-(3-fluorotricyclo[3.3.1.1^3,7]dec-1-yl)-4-oxo-7-[(2,2,2-trifluoroethyl)amino]-1,4-dihydro-1,8-naphthyridine-3-carboxamide]",–,0.058 µM,–
"CC[C@@H](NC(=O)c1cn(-c2ccc(F)cc2F)c2nc(NCC(F)(F)F)ccc2c1=O)C(F)(F)F [Example 94, 1-(2,4-Difluorophenyl)-4-oxo-N-[(2R)-1,1,1-trifluorobutan-2-yl]-7-[(2,2,2-trifluoroethyl)amino]-1,4-dihydro-1,8-naphthyridine-3-carboxamide]",–,0.164 µM,–
"CC[C@H](NC(=O)c1cn(-c2ccc(F)cc2F)c2nc(N3CCC(F)(F)C3)ccc2c1=O)C(F)(F)F [Example 75, 1-(2,4-Difluorophenyl)-7-(3,3-difluoropyrrolidin-1-yl)-4-oxo-N-[(2S)-1,1,1-trifluorobutan-2-yl]-1,4-dihydro-1,8-naphthyridine-3-carboxamide]",–,0.073 µM,–
"O=C(NC1(C(F)(F)F)CCCC1)c1cn(-c2ccc(F)cc2F)c2nc(NCC(F)(F)F)ccc2c1=O [Example 96, 1-(2,4-Difluorophenyl)-4-oxo-7-[(2,2,2-trifluoroethyl)amino]-N-[1-(trifluoromethyl)cyclopentyl]-1,4-dihydro-1,8-naphthyridine-3-carboxamide]",–,0.134 µM,–
"CN(C)c1ccc2c(=O)c(C(=O)NC(Cc3ccccc3)C(F)(F)F)cn(-c3ccc(F)cc3F)c2n1 (racemic) [Example 143, rac-1-(2,4-Difluorophenyl)-7-(dimethylamino)-4-oxo-N-(1,1,1-trifluoro-3-phenylpropan-2-yl)-1,4-dihydro-1,8-naphthyridine-3-carboxamide]",–,0.037 µM,–
"CC1(O)CCCN(c2ccc3c(=O)c(C(=O)NC45CC6CC(CC(C6)C4)C5)cn(-c4ccc(F)cc4F)c3n2)C1 (racemic) [Example 119, rac-1-(2,4-Difluorophenyl)-7-(3-hydroxy-3-methylpiperidin-1-yl)-4-oxo-N-(tricyclo[3.3.1.1^3,7]dec-1-yl)-1,4-dihydro-1,8-naphthyridine-3-carboxamide]",–,0.09 µM,–
"CN(C)c1ccc2c(=O)c(C(=O)Nc3c(Cl)cccc3Cl)cn(-c3ccc(F)cc3F)c2n1 [Example 55, N-(2,6-Dichlorophenyl)-1-(2,4-difluorophenyl)-7-(dimethylamino)-4-oxo-1,4-dihydro-1,8-naphthyridine-3-carboxamide]",–,0.036 µM,–
"O=C(N[C@@H](C1CC1)C(F)(F)F)c1cn(-c2c(F)cc(F)cc2F)c2nc(N3CC[C@@H](O)[C@H](O)C3)ccc2c1=O (single isomer, unassigned) [Example 617, N-[(1 S)-1-Cyclopropyl-2,2,2-trifluoroethyl]-7-[trans-3,4-dihydroxypiperidin-1-yl]-4-oxo-1-(2,4,6-trifluorophenyl)-1,4-dihydro-1,8-naphthyridine-3-carboxamide]",0.096 µM,–,Efficiency (M2-GIRK1/4 reporter cells): 98.0%

# Continued, in another order:
EC50 [1],EC50 [2],Compound,other results
0.009 µM,–,"CC(C)C(NC(=O)c1cn(-c2c(F)cc(F)cc2F)c2nc(N3C[C@@H](O)CC3=O)ccc2c1=O)C(F)(F)F (mixture of isomers) [Example 526, 7-[(4S)-4-Hydroxy-2-oxopyrrolidin-1-yl]-4-oxo-N-[1,1,1-trifluoro-3-methylbutan-2-yl]-1-(2,4,6-trifluorophenyl)-1,4-dihydro-1,8-naphthyridine-3-carboxamide]",Emax (M2-GIRK1/4 reporter cells): 100%
0.024 µM,–,"CC[C@H](NC(=O)c1cn(-c2c(F)cccc2F)c2nc(N3CC4CC4(O)C3)ccc2c1=O)C(F)(F)F (mixture of isomers) [Example 417, 1-(2,6-Difluorophenyl)-7-[1-hydroxy-3-azabicyclo[3.1.0]hex-3-yl]-4-oxo-N-[(2S)-1,1,1-trifluorobutan-2-yl]-1,4-dihydro-1,8-naphthyridine-3-carboxamide]",Emax (M2-GIRK1/4 reporter cells): 100%
–,0.751 µM,"O=C(NC1(C(F)(F)F)CCOCC1)c1cn(-c2ccc(F)cc2F)c2nc(N3C[C@@H](O)CC3=O)ccc2c1=O [Example 237, 1-(2,4-Difluorophenyl)-7-[(4S)-4-hydroxy-2-oxopyrrolidin-1-yl]-4-oxo-N-[4-(trifluoromethyl)tetrahydro-2H-pyran-4-yl]-1,4-dihydro-1,8-naphthyridine-3-carboxamide]",–
0.47 µM,–,"CC[C@H](NC(=O)c1cn(-c2c(F)cc(F)cc2F)c2nc(N3CC(CNC(C)=O)CC3=O)ccc2c1=O)C(F)(F)F (stereo partly drawn) [Example 518, 7-[4-(Acetamidomethyl)-2-oxopyrrolidin-1-yl]-4-oxo-N-[(2S)-1,1,1-trifluorobutan-2-yl]-1-(2,4,6-trifluorophenyl)-1,4-dihydro-1,8-naphthyridine-3-carboxamide]",Emax (M2-GIRK1/4 reporter cells): 99.5%
0.023 µM,–,"O=C(NC(CC(F)(F)F)C1CC1)c1cn(-c2c(F)cc(F)cc2F)c2nc(N3C[C@@H](O)[C@H](O)C3)ccc2c1=O (single isomer, unassigned) [Example 440]",Efficiency (M2-GIRK1/4 reporter cells): 98.5%
–,0.03 µM,"CC(C)CC(NC(=O)c1cn(-c2ccc(F)cc2F)c2nc(N(C)C)ccc2c1=O)C(F)(F)F (racemic) [Example 145, rac-1-(2,4-Difluorophenyl)-7-(dimethylamino)-4-oxo-N-(1,1,1-trifluoro-4-methylpentan-2-yl)-1,4-dihydro-1,8-naphthyridine-3-carboxamide]",–
–,0.023 µM,"C[C@@H]1CN(c2ccc3c(=O)c(C(=O)N[C@@H](C)COC(F)(F)F)cn(-c4c(F)cc(F)cc4F)c3n2)C(=O)N1 [Example 381, 7-[(4R)-4-Methyl-2-oxoimidazolidin-1-yl]-4-oxo-N-[(2S)-1-(trifluoromethoxy)propan-2-yl]-1-(2,4,6-trifluorophenyl)-1,4-dihydro-1,8-naphthyridine-3-carboxamide]",–
0.06 µM,–,"CC[C@H](NC(=O)c1cn(-c2c(F)cccc2F)c2nc(N3CCNC3=O)ccc2c1=O)C(F)(F)F [Example 637, 1-(2,6-Difluorophenyl)-4-oxo-7-(2-oxoimidazolidin-1-yl)-N-[(2)-1,1,1-trifluorobutan-2-yl]-1,4-dihydro-1,8-naphthyridine-3-carboxamide]",Emax (M2-GIRK1/4 reporter cells): 93%
–,0.017 µM,"O=C(N[C@@H](C1CC1)C(F)(F)F)c1cn(-c2c(F)cccc2Cl)c2nc(N3C[C@@H](O)CC3=O)ccc2c1=O [Example 352, 1-(2-Chloro-6-fluorophenyl)-N-[(1S)-1-cyclopropyl-2,2,2-trifluoroethyl]-7-[(4S)-4-hydroxy-2-oxopyrrolidin-1-yl]-4-oxo-1,4-dihydro-1,8-naphthyridine-3-carboxamide]",–
–,0.147 µM,"O=C(NC(c1c(F)cccc1F)C(F)(F)F)c1cn(-c2ccc(F)cc2F)c2nc(N3CCC(O)CC3=O)ccc2c1=O (single isomer, unassigned) [Example 256, 1-(2,4-Difluorophenyl)-N-[1-(2,6-difluorophenyl)-2,2,2-trifluoroethyl]-7-[4-hydroxy-2-oxopiperidin-1-yl]-4-oxo-1,4-dihydro-1,8-naphthyridine-3-carboxamide]",–
